The results in this text go back to patent US8158559B2, “Herbicidal combination comprising dimethoxytriazinyl-substituted difluoromethanesulfonylanilides” (Bayer Cropscience AG, priority 2008, dated 2012).

Like-named read-outs stand apart in the source and are kept apart here.

Holding throughout (test): Post-emergence action against weeds, greenhouse pot test, visual scoring
Common to all, as to format: in vivo

The test system of one experiment is Oryza sativa (ORYSA). Conditions: read-out: % activity found; for inhibition at 4 g/ha: dosage 4 g of ai/ha; for inhibition at 12 g/ha: dosage 12 g of ai/ha. The protocol:
(§1) Seeds or rhizome pieces of mono- and dicotyledonous harmful and useful plants were placed in peat pots (diameter 4 cm) filled with sandy loam and then covered with soil. The pots were kept in a greenhouse under optimum conditions. In addition, harmful plants encountered in paddy rice cultivation were cultivated in pots with a water level 2 cm above the soil surface.
(§2) About three weeks after the start of the cultivation, the test plants were treated at the 2- to 3-leaf stage. The herbicides, formulated as powder or liquid concentrates, were, either alone or in the combinations according to the invention, sprayed in various dosages on to the green parts of the plants using an application rate of 600 l of water/ha (converted). For further cultivation of the plants, the pots were then again kept under optimum conditions in a greenhouse.
(§3) The visual scoring of the herbicidal effects was carried out in intervals up to 21 days after the treatment. Scoring was carried out in percent in comparison to the untreated control plants. 0%=no herbicidal activity, 100%=complete herbicidal activity=complete kill.
(§4) The percentages from the treatments with the herbicides alone (=individual application) and with the combinations according to the invention (=mixtures) were employed to calculate interactions using the method of Colby. When the observed efficacies of the mixtures exceed the formal sum of the values of the tests with individual applications, they also exceed the expected value according to Colby, which is calculated using the formula below (cf. S. R. Colby; in Weeds 15 (1967) pp. 20 to 22): E=A+B−(A×B/100)
(§5) Here: • A, B=activity of components A and B in percent at a dosage of a and b g of ai/ha (=gramm of active substance per hectare), respectively. • E=expected value in % at a dosage of a+b g of ai/ha. Results
(§6) The combinations according to the invention of herbicides from group (A) with herbicides from group (B) were tested on a broad spectrum of important harmful plants (weed grasses, broad-leaved weeds/Cyperaceae) and useful plants: Triticum aestivum (TRZAS), Stellaria media (STEME), Lolium multiflorum (LOLMU), Veronica persica (VERPE), Alopecurus myosuroides (ALOMY), Matricaria inodora (MATIN), Brassica napus (BRSNW), Viola tricolor (VIOTR), Avena fatua (AVEFA), Amaranthus retroflexus (AMARE), Zea mays (ZEAMX), Pharbitis purpurea (PHBPU), Setaria viridis (SETVI), Fallopia (ex Polygonum) convolvulus (POLCO), Echinochloa crus-galli (ECHCG), Abuthilon theophrasti (ABUTH), Cyperus esculentus (CYPES), Oryza sativa (ORYSA).
(§7) Of particular interest are the results shown in the tables (Tab.) below, where the following key is used: • (1) EPPO code (former Bayer code) for the treated plant (see above) • (2) Time of scoring: DAT (days after treatment) • (3) Component A tested (identifying number) • (4) Component B tested (identifying number) • (5) Dosage component A [g of ai/ha] • (6) Dosage component B [g of ai/ha] • (7) % activity found • (8) E value (calculated according to Colby; see above) • (9) Comments: “SYNERGY”=synergistic interaction (E value<% activity found); “SAFENING”=safener action on useful plant (E value>% activity found)

Experiment [1] has as its system Matricaria inodora (MATIN). The settings on record: Tripleurospermum inodorum, 504 h, read-out: % activity found. How it is done:
as §1, §2, §3, §4, §5, §6, §7

For another experiment, the system named is Viola tricolor (VIOTR). The settings on record: 240 h, read-out: % activity found. How it is done: as §1, §2, §3, §4, §5, §6, §7
Experiment [2] deals with Cyperus esculentus (CYPES). The settings on record: 504 h, read-out: % activity found. How it is done: as §1, §2, §3, §4, §5, §6, §7
The test system of a further experiment is Zea mays (ZEAMX). The settings on record: read-out: % activity found; for inhibition at 4 g/ha: dosage 4 g of ai/ha. How it is done:
as §1, §2, §3, §4, §5, §6, §7

In experiment [3] the test system is Lolium multiflorum (LOLMU). Conditions: read-out: % activity found; for inhibition at 4 g/ha: dosage 4 g of ai/ha. How it is done:
as §1, §2, §3, §4, §5, §6, §7

The next experiment relates to Avena fatua (AVEFA). The settings on record: 504 h, read-out: % activity found. How it is done: as §1, §2, §3, §4, §5, §6, §7
Experiment [4] relates to Triticum aestivum (TRZAS). Conditions: read-out: % activity found; for inhibition at 12 g/ha: dosage 12 g of ai/ha. The protocol:
as §1, §2, §3, §4, §5, §6, §7

[5] abbreviates: 240 h, 10 DAT, dosage 12 g of ai/ha.
The mark [6] stands for this setting: 504 h, 21 DAT, dosage 12 g of ai/ha.

With `COc1nc(OC)nc(C(=O)c2cccc(F)c2N(C)S(=O)(=O)C(F)F)n1` [A-1], the inhibition at 4 g/ha is 10% in the experiment on Oryza sativa (ORYSA) (240 h, 10 DAT); 0% with Oryza sativa (ORYSA) (504 h, 21 DAT); 50% in experiment [1] (21 DAT, dosage 4 g of ai/ha); 20% in the experiment with Viola tricolor (VIOTR) (10 DAT, dosage 4 g of ai/ha); 80% in experiment [2] (21 DAT, dosage 4 g of ai/ha); 0% in the experiment with Zea mays (ZEAMX) (240 h, 10 DAT). Besides, the inhibition at 4 g/ha in the experiment with Zea mays (ZEAMX) (504 h, 21 DAT) was 0%; in experiment [3] (240 h, 10 DAT), 0%; in experiment [3] (504 h, 21 DAT), 0%; in the experiment with Avena fatua (AVEFA) (21 DAT, dosage 4 g of ai/ha), 10%; in experiment [4] (240 h, 10 DAT, dosage 4 g of ai/ha), 0%. Moreover, the inhibition at 12 g/ha in the experiment on Oryza sativa (ORYSA) (240 h, 10 DAT) turned out to be 10%; in the experiment with Oryza sativa (ORYSA) (504 h, 21 DAT), 10%; with Viola tricolor (VIOTR) (10 DAT, dosage 12 g of ai/ha), 20%; in the experiment with Zea mays (ZEAMX) (setting [5]) it was 0%; with Zea mays (ZEAMX) (setting [6]) it was 0%; in experiment [3] (setting [5]), 10%. Also, the inhibition at 12 g/ha in experiment [3] (setting [6]) worked out at 10%; in the experiment with Avena fatua (AVEFA) (21 DAT, dosage 12 g of ai/ha) it was 30%; in experiment [4] (240 h, 10 DAT), 0%; in experiment [4] (504 h, 21 DAT) it was 0%.
As for `CCOC(=O)COc1ncccc1Oc1cc(-n2c(=O)cc(C(F)(F)F)n(C)c2=O)c(F)cc1Cl` [B4-6, ethyl [[3-[2-chloro-5-[3,6-dihydro-3-methyl-2,6-dioxo-4-(trifluoromethyl)-1(2H)-pyrimidinyl]-4-fluorophenoxy]-2-pyridinyl]oxy]acetate, reference compound], the inhibition at 3 g/ha came out at 40% in the experiment with Oryza sativa (ORYSA) (240 h); 10% in the experiment on Viola tricolor (VIOTR); 40% in the experiment with Zea mays (ZEAMX) (240 h); 30% in the experiment on Zea mays (ZEAMX) (504 h); 0% in the experiment on Avena fatua (AVEFA); 30% in experiment [4] (504 h). In addition, the inhibition at 9 g/ha in the experiment on Oryza sativa (ORYSA) (240 h) stood at 40%; in experiment [1] it was 80%; in the experiment with Viola tricolor (VIOTR), 85%; in experiment [2] it was 20%; in experiment [4] (240 h), 50%.
With `COc1cc(OC)nc(Oc2cccc(Oc3nc(OC)cc(OC)n3)c2C(=O)O)n1` [B2-1, sodium 2,6-bis[(4,6-dimethoxy-2-pyrimidinyl)oxy]benzoate, reference compound], the inhibition at 36 g/ha amounted to 70% in the experiment on Oryza sativa (ORYSA) (504 h), 40% in the experiment with Zea mays (ZEAMX) (240 h), 0% in the experiment with Zea mays (ZEAMX) (504 h) and 70% in experiment [3] (504 h). The inhibition at 12 g/ha amounted to 40% with Zea mays (ZEAMX) (240 h), 0% with Zea mays (ZEAMX) (504 h), 40% in experiment [3] (240 h) and 20% in experiment [3] (504 h).
